Assay: Biodistribution of 188Re-labelled compounds in lipiodol solution in mice after tail vein injection
Assay type: in vivo
Settings: mice (ICR)
Protocol: To the ^188Re-labelled reaction mixture prepared in the foregoing Examples 4 to 6, lipiodol (5 ml) was added, mixed well and the solution was centrifuged at 3000 rpm for 10 min. The supernatant was removed and 2 ml saline was added. After mixing well, the resulting solution was centrifuged again at 3000 rpm for 10 min and the supernatant was removed to recover a lower phase of lipiodol.
Mice (ICR) were administered with an injection of ^188Re-labelled compound in lipiodol solution which was prepared in the Example 7 via the tail vein. Radioactivity distributed in tissues and weight of each tissue were measured to calculate the percentage of radioactivity per gram of unit tissue relative to total radioactivity administered.
As radiation accumulation mechanism in the lung and the liver cancer are similar, it is convenient to detect the level of radiation accumulating in the lung of a mouse suffering from liver cancer. […] Therefore, it can be inferred that a radiorhenium complex of a diaminedithiol derivative having a long side chain is effective for treating liver cancer.

Compound: CCCCCCCC[N+]12CC[N]3CC(C)(C)[S][188Re-]31(=[O])[S]C(C)(C)C2 (centres unmarked) [^188Re-OTDD]
- Biodistribution, radioactivity in Blood (10 min post-injection): 5.2 ± 1.8 percentage of radioactivity per gram
- Biodistribution, radioactivity in Fat (10 min post-injection): 3.6 ± 0.7 percentage of radioactivity per gram
- Biodistribution, radioactivity in Heart (10 min post-injection): 6.3 ± 1.7 percentage of radioactivity per gram
- Biodistribution, radioactivity in Kidney (10 min post-injection): 8.0 ± 1.2 percentage of radioactivity per gram
- Biodistribution, radioactivity in Liver (10 min post-injection): 15.1 ± 2.4 percentage of radioactivity per gram
- Biodistribution, radioactivity in Lung (10 min post-injection): 138.4 ± 19.8 percentage of radioactivity per gram
- Biodistribution, radioactivity in Muscle (10 min post-injection): 1.5 ± 0.2 percentage of radioactivity per gram
- Biodistribution, radioactivity in Small intestine (10 min post-injection): 3.6 ± 0.3 percentage of radioactivity per gram
- Biodistribution, radioactivity in Spleen (10 min post-injection): 2.6 ± 0.3 percentage of radioactivity per gram
- Biodistribution, radioactivity in Stomach (10 min post-injection): 3.5 ± 1.3 percentage of radioactivity per gram
- Biodistribution, radioactivity in Blood (30 min post-injection): 3.8 ± 0.4 percentage of radioactivity per gram
- Biodistribution, radioactivity in Fat (30 min post-injection): 2.2 ± 0.2 percentage of radioactivity per gram
- Biodistribution, radioactivity in Heart (30 min post-injection): 4.4 ± 0.3 percentage of radioactivity per gram
- Biodistribution, radioactivity in Kidney (30 min post-injection): 6.6 ± 0.3 percentage of radioactivity per gram
- Biodistribution, radioactivity in Liver (30 min post-injection): 21.6 ± 4.9 percentage of radioactivity per gram
- Biodistribution, radioactivity in Lung (30 min post-injection): 97.4 ± 20.7 percentage of radioactivity per gram
- Biodistribution, radioactivity in Muscle (30 min post-injection): 1.2 ± 0.2 percentage of radioactivity per gram
- Biodistribution, radioactivity in Small intestine (30 min post-injection): 8.0 ± 2.0 percentage of radioactivity per gram
- Biodistribution, radioactivity in Spleen (30 min post-injection): 2.3 ± 0.1 percentage of radioactivity per gram
- Biodistribution, radioactivity in Stomach (30 min post-injection): 12.9 ± 6.6 percentage of radioactivity per gram
- Biodistribution, radioactivity in Blood (1 hr post-injection): 3.1 ± 0.5 percentage of radioactivity per gram
- Biodistribution, radioactivity in Fat (1 hr post-injection): 1.6 ± 0.4 percentage of radioactivity per gram
- Biodistribution, radioactivity in Heart (1 hr post-injection): 2.7 ± 1.0 percentage of radioactivity per gram
- Biodistribution, radioactivity in Kidney (1 hr post-injection): 5.6 ± 0.9 percentage of radioactivity per gram
- Biodistribution, radioactivity in Liver (1 hr post-injection): 20.1 ± 3.3 percentage of radioactivity per gram
- Biodistribution, radioactivity in Lung (1 hr post-injection): 87.0 ± 13.2 percentage of radioactivity per gram
- Biodistribution, radioactivity in Muscle (1 hr post-injection): 0.9 ± 0.2 percentage of radioactivity per gram
- Biodistribution, radioactivity in Small intestine (1 hr post-injection): 13.0 ± 3.7 percentage of radioactivity per gram
- Biodistribution, radioactivity in Spleen (1 hr post-injection): 1.9 ± 0.6 percentage of radioactivity per gram
- Biodistribution, radioactivity in Stomach (1 hr post-injection): 11.1 ± 3.1 percentage of radioactivity per gram
- Biodistribution, radioactivity in Blood (3 hr post-injection): 2.8 ± 0.3 percentage of radioactivity per gram
- Biodistribution, radioactivity in Fat (3 hr post-injection): 1.3 ± 0.4 percentage of radioactivity per gram
- Biodistribution, radioactivity in Heart (3 hr post-injection): 1.9 ± 0.4 percentage of radioactivity per gram
- Biodistribution, radioactivity in Kidney (3 hr post-injection): 4.0 ± 0.5 percentage of radioactivity per gram
- Biodistribution, radioactivity in Liver (3 hr post-injection): 19.7 ± 6.7 percentage of radioactivity per gram
- Biodistribution, radioactivity in Lung (3 hr post-injection): 61.6 ± 10.0 percentage of radioactivity per gram
- Biodistribution, radioactivity in Muscle (3 hr post-injection): 0.5 ± 0.1 percentage of radioactivity per gram
- Biodistribution, radioactivity in Small intestine (3 hr post-injection): 23.4 ± 0.3 percentage of radioactivity per gram
- Biodistribution, radioactivity in Spleen (3 hr post-injection): 1.8 ± 0.3 percentage of radioactivity per gram
- Biodistribution, radioactivity in Stomach (3 hr post-injection): 15.5 ± 6.6 percentage of radioactivity per gram
- Biodistribution, radioactivity in Blood (24 hr post-injection): 0.6 ± 0.0 percentage of radioactivity per gram
- Biodistribution, radioactivity in Fat (24 hr post-injection): 0.4 ± 0.1 percentage of radioactivity per gram
- Biodistribution, radioactivity in Heart (24 hr post-injection): 0.7 ± 0.1 percentage of radioactivity per gram
- Biodistribution, radioactivity in Kidney (24 hr post-injection): 1.5 ± 0.4 percentage of radioactivity per gram
- Biodistribution, radioactivity in Liver (24 hr post-injection): 7.3 ± 1.5 percentage of radioactivity per gram
- Biodistribution, radioactivity in Lung (24 hr post-injection): 22.8 ± 3.3 percentage of radioactivity per gram
- Biodistribution, radioactivity in Muscle (24 hr post-injection): 0.2 ± 0.0 percentage of radioactivity per gram
- Biodistribution, radioactivity in Small intestine (24 hr post-injection): 19.8 ± 12.0 percentage of radioactivity per gram
- Biodistribution, radioactivity in Spleen (24 hr post-injection): 2.0 ± 2.0 percentage of radioactivity per gram
- Biodistribution, radioactivity in Stomach (24 hr post-injection): 3.6 ± 1.8 percentage of radioactivity per gram

Reference: patent US7067508B2, “Diaminedithiol derivatives and radiorhenium or radiotechnetium complex thereof; a liver cancer-treating composition comprising the radiorhenium complex and lipiodol; and a kit for preparation of the liver cancer-treating composition” (Seoul National University Industry Foundation, priority 2001, dated 2006)
